According to US4349685A (priority 1981, dated 1982):

Key:
[1] = test system: causative organism of wheat leaf rust; experiment: Control of wheat leaf rust by aqueous suspension of the compound; type: in vivo; details: 300 parts per million by weight, sole compound
[2] = test system: causative organism of downey mildew; experiment: Control of downey mildew on host plants (root drench and foliar treatment); type: in vivo; details: 500 parts per million by weight solution; root system application and foliar treatment of host plants
Source text: Solutions containing 500 parts per million by weight of the compound were formulated and applied to the host plants through two different modes of administration. First, the solution was applied to the root system of the host plants by drenching the chemicals into the pots or by placing the pots into larger cups containing the solution of the compound. Second, a foliar chemical treatment was applied to the host plants. The plants were then exposed to the pathogen and placed under conditions suitable for infection and development of the disease.

SMILES	kill of the causative organism of wheat leaf rust [1]	control of the causative organism of downey mildew [2]
CCC(=O)OCCNC(=O)Oc1ccc2oc(=O)sc2c1 [Example 1, 5-[2-(Propionyloxy)ethylcarbamoyloxy]-1,3-benzoxathiol-2-one]	substantially complete kill	
CCc1cccc(NC(=O)Oc2ccc3oc(=O)sc3c2)c1 [Example 4, 5-[(3-Ethylphenyl)carbamoyloxy]-1,3-benzoxathiol-2-one]		90%
